Laboratory results as given in paper PMC10221074, “Functional Profiling of the A-Family of Venom Peptides from the Wolf Spider Lycosa shansia” (Toxins, 2023).

Columns and labels:
[1] = test system: B/Malaysia/2506/2004 (B-Mal); assay type: cell-based, influenza virus
[2] = test system: A/Hamburg/05/2009 (H1N1); assay type: cell-based, influenza virus
[3] = test system: A/Hessen/1/2003 (H3N2); assay type: cell-based, influenza virus
[4] = test system: panel of seven bacterial strains; assay: Antibacterial growth assay (OD600), statements on the whole panel; assay type: cell-based; conditions: growth after 48 h
[5] = test system: Pseudomonas aeruginosa DSM 1117; assay: Antibacterial growth assay (OD600); conditions: OD600, medium = 100, MH II broth, 37 °C, peptide 200 µM mixed 50 µL + 50 µL with bacteria, Figure 7: 48 h; for Bacterial growth relative to medium, P. aeruginosa (1117), replicate 1: replicate column 1; for Bacterial growth relative to medium, P. aeruginosa (1117), replicate 2: replicate column 2; for Bacterial growth relative to medium, P. aeruginosa (1117), replicate 3: replicate column 3
Method: (§1) Cryo-conserved cultures of selected bacterial strains (Table 4) were transferred to Tryptic Soy Agar (TSA) plates (Carl Roth) with a sterile inoculation loop, sealed with Parafilm (BEMIS, Neenah, WI, USA), and incubated for 1–2 days at 37 °C depending on growth. Single colonies were picked and transferred into 2–3 mL of the Mueller–Hinton II (MH II) broth (BD, Heidelberg, Germany). The bacteria were cultivated overnight, subcultured on fresh medium and grown for 3–4 h before testing at 37 °C, with shaking at 180 rpm. We measured the optical density at 600 nm (OD600) of 1 mL of the bacterial suspensions in polystyrene cuvettes (SARSTED, Nümbrecht, Germany) using an Ultrospec 10 spectrophotometer (Biochrome, Cambridge, UK). We then diluted them with the MH II medium to the preferred OD600 (Table 2). The peptides were dissolved in DMSO to generate 10 mmol/L stocks and diluted with the MH II medium to 200 µM before the assay. We used 10 µg/mL (~40 µg/mL for S. epidermidis) gentamicin and colistin (Sigma-Aldrich, Taufkirchen, Germany), DMSO and the medium only as controls. The bacteria were transferred to 96-multiwell plates with a final volume of 100 µL per well (50 µL bacterial suspension, and 50 µL test peptide). The OD600 was measured at 0, 24 and 48 h using a BioTek Eon microplate reader followed by analysis with Gen5 v2.09.

[6] = test system: Pseudomonas aeruginosa DSM 50071; assay: Antibacterial growth assay (OD600); conditions: OD600, medium = 100, MH II broth, 37 °C, peptide 200 µM mixed 50 µL + 50 µL with bacteria, Figure 7: 48 h; for Bacterial growth relative to medium, P. aeruginosa (50071), replicate 1: replicate column 1; for Bacterial growth relative to medium, P. aeruginosa (50071), replicate 2: replicate column 2; for Bacterial growth relative to medium, P. aeruginosa (50071), replicate 3: replicate column 3
Method: as §1

[7] = test system: Micrococcus luteus DSM 20030; assay: Antibacterial growth assay (OD600); conditions: for Antibacterial activity (in words): M. luteus DSM 20030, growth after 48 h; for Bacterial growth relative to medium, M. luteus, replicate 1 / Bacterial growth relative to medium, M. luteus, replicate 2 / Bacterial growth relative to medium, M. luteus, replicate 3: OD600, medium = 100, MH II broth, 37 °C, peptide 200 µM mixed 50 µL + 50 µL with bacteria, Figure 7: 48 h; for Bacterial growth relative to medium, M. luteus, replicate 1: replicate column 1; for Bacterial growth relative to medium, M. luteus, replicate 2: replicate column 2; for Bacterial growth relative to medium, M. luteus, replicate 3: replicate column 3
Method: as §1

[8] = test system: Staphylococcus aureus DSM 2569; assay: Antibacterial growth assay (OD600); conditions: OD600, medium = 100, MH II broth, 37 °C, peptide 200 µM mixed 50 µL + 50 µL with bacteria, Figure 7: 48 h; for Bacterial growth relative to medium, S. aureus, replicate 1: replicate column 1; for Bacterial growth relative to medium, S. aureus, replicate 2: replicate column 2; for Bacterial growth relative to medium, S. aureus, replicate 3: replicate column 3
[9] = test system: Escherichia coli BL21(DE3); assay: Antibacterial growth assay (OD600); conditions: OD600, medium = 100, MH II broth, 37 °C, peptide 200 µM mixed 50 µL + 50 µL with bacteria, Figure 7: 48 h; for Bacterial growth relative to medium, E. coli, replicate 1: replicate column 1; for Bacterial growth relative to medium, E. coli, replicate 2: replicate column 2; for Bacterial growth relative to medium, E. coli, replicate 3: replicate column 3
Method: as §1

[10] = test system: Listeria monocytogenes DSM 20600; assay: Antibacterial growth assay (OD600); conditions: OD600, medium = 100, MH II broth, 37 °C, peptide 200 µM mixed 50 µL + 50 µL with bacteria, Figure 7: 48 h; for Bacterial growth relative to medium, L. monocytogenes, replicate 1: replicate column 1; for Bacterial growth relative to medium, L. monocytogenes, replicate 2: replicate column 2; for Bacterial growth relative to medium, L. monocytogenes, replicate 3: replicate column 3
[11] = test system: Staphylococcus epidermidis DSM 28319; assay: Antibacterial growth assay (OD600); conditions: OD600, medium = 100, MH II broth, 37 °C, peptide 200 µM mixed 50 µL + 50 µL with bacteria, Figure 7: 48 h; for Bacterial growth relative to medium, S. epidermidis, replicate 1: replicate column 1; for Bacterial growth relative to medium, S. epidermidis, replicate 2: replicate column 2; for Bacterial growth relative to medium, S. epidermidis, replicate 3: replicate column 3

Sequence | Viability of infected cells relative to aprotinin, Replicate 1 [1] | Viability of infected cells relative to aprotinin, Replicate 2 [1] | Viability of infected cells relative to aprotinin, Replicate 3 [1] | Viability of infected cells relative to aprotinin, Replicate 1 [2] | Viability of infected cells relative to aprotinin, Replicate 2 [2] | Viability of infected cells relative to aprotinin, Replicate 3 [2] | Viability of infected cells relative to aprotinin, Replicate 1 [3] | Viability of infected cells relative to aprotinin, Replicate 2 [3] | Antibacterial activity over the panel (in words) [4] | Bacterial growth relative to medium, P. aeruginosa (1117), replicate 1 [5] | Bacterial growth relative to medium, P. aeruginosa (1117), replicate 2 [5] | Bacterial growth relative to medium, P. aeruginosa (1117), replicate 3 [5] | Bacterial growth relative to medium, P. aeruginosa (50071), replicate 1 [6] | Bacterial growth relative to medium, P. aeruginosa (50071), replicate 2 [6] | Bacterial growth relative to medium, P. aeruginosa (50071), replicate 3 [6] | Bacterial growth relative to medium, M. luteus, replicate 1 [7] | Bacterial growth relative to medium, M. luteus, replicate 2 [7] | Bacterial growth relative to medium, M. luteus, replicate 3 [7] | Bacterial growth relative to medium, S. aureus, replicate 1 [8] | Bacterial growth relative to medium, S. aureus, replicate 2 [8] | also measured
SLLGLLDVVKNTVGQTGLL [LS-AMP-A8] | 0.03065 | 0.0169 | 0.06181 | 0.02555 | 0.01502 | 0.01283 | 0.08185 | 0.1031 | inhibited the growth of most of the bacteria except two | 76.1322 | 81.7612 | 75.3667 | 99.79 | 113.132 | 91.0686 | 72.2222 | 103.716 | 73.0273 | 67.0732 | 73.4467 | Viability of infected cells relative to aprotinin, Replicate 3 [3]: 0.0008759; Antibacterial activity (in words) [7]: no activity; Bacterial growth relative to medium, S. aureus, replicate 3 [8]: 85.2226; Bacterial growth relative to medium, E. coli, replicate 1 [9]: 91.7388; Bacterial growth relative to medium, E. coli, replicate 2 [9]: 101.043; Bacterial growth relative to medium, E. coli, replicate 3 [9]: 53.4577; Bacterial growth relative to medium, L. monocytogenes, replicate 1 [10]: 57.9391; Bacterial growth relative to medium, L. monocytogenes, replicate 2 [10]: 71.2645; Bacterial growth relative to medium, L. monocytogenes, replicate 3 [10]: 69.2971; Bacterial growth relative to medium, S. epidermidis, replicate 1 [11]: 79.7615; Bacterial growth relative to medium, S. epidermidis, replicate 2 [11]: 73.3026; Bacterial growth relative to medium, S. epidermidis, replicate 3 [11]: 77.5582
SLLGLLDVVKNKVGQI [LS-AMP-A5] | 0.1132 | 0.06127 | 0.06301 | 0.0613 | 0.03494 | 0.03984 | 0.17 | 0.06482 | inhibited the growth of most of the bacteria except two | 63.186 | 51.5489 | 62.0721 | 93.2773 | 109.79 | 85.8852 | 73.1884 | 97.1848 | 36.1549 | 55.1989 | 62.917 | Viability of infected cells relative to aprotinin, Replicate 3 [3]: 0.08289; Viability of infected cells relative to aprotinin, Replicate 4 ([3]; […], replicate 4 (additional internal control)): 0.1822; Viability of infected cells relative to aprotinin, Replicate 5 ([3]; […], replicate 5 (additional internal control)): 0.1791; Viability of infected cells relative to aprotinin, Replicate 6 ([3]; […], replicate 6 (additional internal control)): 0.1761; Antibacterial activity (in words) [7]: no activity; Bacterial growth relative to medium, S. aureus, replicate 3 [8]: 88.627; Bacterial growth relative to medium, E. coli, replicate 1 [9]: 99.4801; Bacterial growth relative to medium, E. coli, replicate 2 [9]: 69.6408; Bacterial growth relative to medium, E. coli, replicate 3 [9]: 26.4544; Bacterial growth relative to medium, L. monocytogenes, replicate 1 [10]: 122.608; Bacterial growth relative to medium, L. monocytogenes, replicate 2 [10]: 80.283; Bacterial growth relative to medium, L. monocytogenes, replicate 3 [10]: 61.98; Bacterial growth relative to medium, S. epidermidis, replicate 1 [11]: 62.884; Bacterial growth relative to medium, S. epidermidis, replicate 2 [11]: 53.6633; Bacterial growth relative to medium, S. epidermidis, replicate 3 [11]: 71.8202
SLLGLLDVVKSKVGQTGLL [LS-AMP-A18] | 0.06546 | 0.04295 | 0.0512 | 0.03159 | 0.03911 | 0.01637 | 0.1207 | 0.1378 | largely inactive | 87.8796 | 68.3606 | 68.2151 | 102.836 | 105.708 | 87.0813 | 143.237 | 115.766 | 65.7102 | 75 | 66.2525 | Bacterial growth relative to medium, S. aureus, replicate 3 [8]: 80.9203; Bacterial growth relative to medium, E. coli, replicate 1 [9]: 110.572; Bacterial growth relative to medium, E. coli, replicate 2 [9]: 96.6395; Bacterial growth relative to medium, E. coli, replicate 3 [9]: 68.0936; Bacterial growth relative to medium, L. monocytogenes, replicate 1 [10]: 145.215; Bacterial growth relative to medium, L. monocytogenes, replicate 2 [10]: 105.128; Bacterial growth relative to medium, L. monocytogenes, replicate 3 [10]: 13.7733; Bacterial growth relative to medium, S. epidermidis, replicate 1 [11]: 95.0126; Bacterial growth relative to medium, S. epidermidis, replicate 2 [11]: 84.2348; Bacterial growth relative to medium, S. epidermidis, replicate 3 [11]: 89.1297
